Measurements taken from patent publication US11104630B2, “Synthesis of mono-chlorinated acetophenone” (SIEGFRIED AG, priority 2017, dated 2021).

Test: Solubility of the starting material in the solvent
Format: physicochemical
Conditions: 20° C., until clear solution
Experimental: Solubility of the Starting Material in the Solvent
To 1 g of HAP is added 5 ml of solvent. The mixture is stirred in a water bath at 20° C. The solvent is further slowly added under stirring until a clear solution appears.
The amount of used solvent is noted.

In the case of `CC(=O)c1cccc(O)c1` [HAP, 3-hydroxy-acetophenon], the “Solvent in ml per g HAP” value (solvent Acetone) is reported as 46 ml per g HAP, the “Solvent in ml per g HAP” value (solvent Acetonitrile) is reported as 6 ml per g HAP and the “Solvent in ml per g HAP” value (solvent Cyclohexane) is reported as >200 ml per g HAP. For the same molecule, the “Solvent in ml per g HAP” value (solvent DCM) was 22 ml per g HAP, the “Solvent in ml per g HAP” value (solvent Ethanol) was 20 ml per g HAP and the “Solvent in ml per g HAP” value (solvent Ether) was 8 ml per g HAP. For the same molecule, the “Solvent in ml per g HAP” value (solvent Methanol) was 10 ml per g HAP, the “Solvent in ml per g HAP” value (solvent Tetraglyme) was 9 ml per g HAP and the “Solvent in ml per g HAP” value (solvent Toluene) was 156 ml per g HAP. The “Solvent in ml per g HAP” value (solvent n-Heptane) was 20 ml per g HAP and the “Solvent in ml per g HAP” value (solvent n-Hexane) was 23 ml per g HAP.
